# Data from patent US8969400B2, “Pharmaceutical compositions of 5-hydroxytryptophan and serotonin-enhancing compound” (Duke University, priority 2007, dated 2015).
# How the values were obtained:
# Assay type in all cases: in vivo, mouse
# NMRI mice = assay: Tail suspension test in NMRI mice; conditions: single drug i.p. 30 min prior to test, 6 min test
# Excerpt: Drug candidates can be screened for antidepressant-like activity by using animal models. In the tail suspension test the mouse is suspended by its tail. The mouse will initially move and struggle but will with time become increasingly immobile. Pretreatment with a clinically effective antidepressant decreases the time spent immobile. This includes selective serotonin re-uptake inhibitors (SSRIs) and drugs inhibiting the noradrenaline reuptake mechanism, as well as some putative antidepressants with non-monoamine pharmacology. […] In animal models of depression, including the tail suspension test, mouse strains differ considerably in their responsiveness to antidepressants. This may parallel the clinical situation where a considerable subset of patients is refractory to pharmacotherapy. […] In our laboratory mice of the NMRI strain consistently fails to repond to SSRIs in the tail suspension test of antidepressant activity, while C57 mice show a strong response (FIG. 1). Male NMRI and C57Bl/6j mice (Taconic Europe, St. […]) weighing 25-35 g were housed and habituated for at least 7 days before the experiments in Macrolon III cages (20×40×18 cm) with eight mice per cage. Chow and water were available ad libitum, with lights on at 6 a.m. and off at 6 p.m. All behavioral testing was conducted during the light phase. […] All drugs were administered i.p. in saline in a volume of 10 ml/kg. In the tail suspension and locomotor activity experiments drugs were injected 30 min prior to test. The tail suspension test employed was a modified version to that described elsewhere. Mice were suspended individually by the tail using adhesive tape (attached 2 cm from tip of the tail) to a hook attached to a strain gauge and left there for 6 min. The duration of immobility was measured using an automated system (Med Associates, USA) during the 6 min testing period. Tail suspension data were analyzed either using one-way ANOVA (single-drug treatments) or two-way ANOVA (paroxetine/5-HTP and citalopram/5-HTP) with Dunnets post-hoc test. Locomotor activity data were analyzed using two-way ANOVA with Dunnets post-hoc test. Tissue 5-HT data were analyzed using students t-test. Microdialysis 5-HT data were analyzed using two-way repeated measures ANOVA with Dunnets post-hoc test.
# brain 5-HT = assay: Tissue 5-HT in frontal cortex and hippocampus of NMRI mice (HPLC-EC); conditions: acute administration
# Experimental: (§1) Male NMRI and C57Bl/6j mice (Taconic Europe, St. Laven, DK) weighing 25-35 g were housed and habituated for at least 7 days before the experiments in Macrolon III cages (20×40×18 cm) with eight mice per cage. Chow and water were available ad libitum, with lights on at 6 a.m. and off at 6 p.m. All behavioral testing was conducted during the light phase.
# Fluoxetine HCl, desipramine HCL, 5-hydroxytryptamine, citalopram HBr, paroxetine HCl, reboxetine fumarate and duloxetine oxalate. All drugs were administered i.p. in saline in a volume of 10 ml/kg. In the tail suspension and locomotor activity experiments drugs were injected 30 min prior to test.
# Mice killed by cervical dislocation and the frontal cortex and hippocampus rapidly dissected, frozen on dry ice and stored at −80° C. until analysis by HPLC-EC.
# (§2) 5-HT in tissue and microdialysis samples were analysed using HPLC-EC as previously described in Weikop P et al.; Eur Neuropsychopharmacol 2007; 17:658-671.
# (§3) Tail suspension data were analyzed either using one-way ANOVA (single-drug treatments) or two-way ANOVA (paroxetine/5-HTP and citalopram/5-HTP) with Dunnets post-hoc test. Locomotor activity data were analyzed using two-way ANOVA with Dunnets post-hoc test. Tissue 5-HT data were analyzed using students t-test. Microdialysis 5-HT data were analyzed using two-way repeated measures ANOVA with Dunnets post-hoc test.
# extracellular 5-HT = assay: Microdialysis of extracellular 5-HT in frontal cortex, NMRI mice; conditions: citalopram 20 mg/kg, 5-HTP 12.5 mg/kg
# Experimental: as §1
# Microdialysis were performed in freely moving mice as previously described in Jacobsen J P et al.; Neuroscience 2005; 132:1055-1072. The flowrate was 1 ul/min and 20 min samples were collected. Four baseline samples were collected whereafter saline, 5-HTP (12.5 mg/kg), citalopram (20 mg/kg) or citalopram+5-HTP were injected and six additional samples where collected. Samples were collected on ice, immediatedly frozen on dry ice and stored at −80° C. until analysis by HPLC-EC.
# as §2, §3
# C57Bl/6j mice = assay: Tail suspension test in C57 mice; conditions: single drug i.p. 30 min prior to test, 6 min test
# Excerpt: Drug candidates can be screened for antidepressant-like activity by using animal models. In the tail suspension test the mouse is suspended by its tail. The mouse will initially move and struggle but will with time become increasingly immobile. Pretreatment with a clinically effective antidepressant decreases the time spent immobile. This includes selective serotonin re-uptake inhibitors (SSRIs) and drugs inhibiting the noradrenaline reuptake mechanism, as well as some putative antidepressants with non-monoamine pharmacology. […] In animal models of depression, including the tail suspension test, mouse strains differ considerably in their responsiveness to antidepressants. […]
# The tail suspension test employed was a modified version to that described elsewhere. […] The duration of immobility was measured using an automated system (Med Associates, USA) during the 6 min testing period.
# as §3
smiles,measurement,setting,value
"N[C@@H](Cc1c[nH]c2ccc(O)cc12)C(=O)O [5-HTP, 5-hydroxytryptophan]",immobility in tail suspension test,NMRI mice,did not affect immobility
same,"5-HT levels ± sem, Frontal Cortex",brain 5-HT; frontal cortex tissue,122 ± 3.3 % of saline
same,"5-HT levels ± sem, Hippocampus",brain 5-HT; hippocampus tissue,83.4 ± 2.6 % of saline
same,decrease of tissue 5-HT in the hippocampus,brain 5-HT; vs saline,17%
same,increase of tissue 5-HT in the frontal cortex,brain 5-HT; vs saline,22%
same,increase in extracellular 5-HT in the frontal cortex,extracellular 5-HT,only a modest increase
CNCCCN1c2ccccc2CCc2ccccc21 [desipramine],immobility in tail suspension test,C57Bl/6j mice,decreased immobility
same,immobility in tail suspension test,NMRI mice,reduced immobility
CNCC[C@H](Oc1cccc2ccccc12)c1cccs1 [duloxetine],immobility in tail suspension test,NMRI mice,reduced immobility
CNCCC(Oc1ccc(C(F)(F)F)cc1)c1ccccc1 (stereo not shown) [fluoxetine],immobility in tail suspension test,NMRI mice,without effect
Fc1ccc([C@@H]2CCNC[C@H]2COc2ccc3c(c2)OCO3)cc1 [paroxetine],immobility in tail suspension test,NMRI mice,without effect
CCOc1ccccc1OC(c1ccccc1)C1CNCCO1 (stereo not shown) [reboxetine],immobility in tail suspension test,C57Bl/6j mice,decreased immobility
same,immobility in tail suspension test,NMRI mice,reduced immobility
